Experiments:
[1] = test system: APP/PS1 mice; assay: Immunohistochemistry of hippocampus, APP/PS1 mice; assay type: in vivo, mouse; conditions: 3 mg/kg/day i.p.
Method: For an animal model of AD, both sexes of 10- to 18-month-old APP/PS1 mice were maintained and used as previously described.[76],[77] To test the effects of novel H2O2-decomposing enhancers in the AD model, the mice were treated by i.p. injection with KDS12008 (3 mg/kg/day), KDS12017 (3 mg/kg/day), or KDS12025 (3 or 10 mg/kg/day) once per day for 1 or 2 weeks, depending on the experimental protocol. All drugs were dissolved in 200 μl of saline, and the amount of each drug was calculated on the basis of the weight (kg) of the mouse. Moreover, KDS12025 (3 mg/kg/day) was orally administered to the AD model for 2 weeks ad libitum.
The mice were deeply anesthetized with vaporized 1% isoflurane and placed into stereotaxic frames (RWD Life Science, China). Following an incision on the midline of the scalp, a hole was drilled into the skull above the hippocampus. AAV-GFAP104-GFP or AAV-GFAP104-DTR-GFP was bilaterally microinjected into the hippocampal CA1 region (AP, −2.0 mm; ML, ±1.5 mm; DV, −1.65 mm from the bregma). Diphtheria toxin (2 mg/ml) was administered for 16 days as previously described.[77] For shRNA knockdown, AAV-pSicoR-Hbβ-shRNA-mCherry or AAV-pSicoR-Sc-shRNA-mCherry was microinjected into the same coordinate system. A total of 0.8 µl of the virus was injected via a syringe pump (KD Scientific, USA). The injection procedures were implemented before 5 weeks of the experiments. For cell type-specific knockdown, AAV-pSico-Hbβ-shRNA-GFP or AAV-pSico-Sc-shRNA-GFP was combined with either AAV-CaMKII-Cre-mCherry for neuronal targeting or AAV-GFAP-Cre-mCherry for astrocyte targeting. The viruses were bilaterally injected into the hippocampus and substantia nigra via the same stereotaxic coordinates and injection procedures. All viruses used in this study were produced at the Institute for Basic Science virus facility (IBS virus facility, Korea). To investigate the effects of 0.1 mg/kg/day KDS12025, GiD mice were injected with diphtheria toxin (2 mg/ml) daily for 16 days. Concurrently, KDS12025 was administered ad libitum (0.1 mg/kg/day) during the same period.
The mice were deeply anesthetized with 2% isoflurane and positioned on the operating table. After the abdomen was opened and the heart was exposed, the […] were perfused with saline, followed by 4% paraformaldehyde (PFA) in 0.1 M PBS. The mice were decapitated, and the brains were excised from the skull. Excised brains were postfixed in 4% PFA overnight at 4 °C and dehydrated in 30% sucrose for 48 h. Coronal hippocampal sections were cut at 30 µm thickness with a cryostat and stored in storage solution. For the ALS experiments, lumbar spinal cords (L2–L5) were also carefully dissected and immediately immersed in 4% PFA for postfixation. The sections were fully washed in 0.1 M PBS and incubated for 1 h in blocking solution (0.3% Triton X-100, 2% donkey and goat serum in 0.1 M PBS). Next, a mixture of primary antibodies in the blocking solution was used for immunostaining on a shaker overnight at 4 °C. The sections were washed in PBS three times. After washing, the sections were incubated with the corresponding fluorescent secondary antibodies for 1 h at RT. DAPI staining was performed by adding a DAPI solution (1:2000) during the second washing step. After the washing step was complete, the sections were mounted on cover slides with mounting medium. A series of fluorescence images were obtained with an LSM900 (Zeiss, Germany) confocal microscope or Lattice SIM Elyra 7 (Zeiss, Germany). The 15–22 μm Z stack images in 1–2 μm steps were processed for image analysis, which was performed via the ImageJ (NIH, US) and ZEN digital imaging for light microscopy blue system (Zeiss, Germany) programs.

[2] = ROS-Glo H2O2 assay without HRP or Hb; assay type: biochemical; conditions: ROS-Glo assay lacking HRP/Hb
Method: (§1) Hb (Sigma‒Aldrich, H7379), H2O2 (Sigma‒Aldrich, H1009), and Amplex Red reagents (Invitrogen, A12222) were obtained for the study. A 4 μM H2O2 solution was prepared in 50 mM sodium phosphate buffer (pH 7.2). Then, 49 μl of this mixture was mixed with 1 μl of the test compound in DMSO or distilled water. The mixture was combined with an assay mixture of Amplex Red reagent (20 mM stock to 0.1 mM) and HRP (200 U/ml stock to 0.2 U/ml) and added to the wells at 50 μl/well. After a 60-min incubation at 37 °C, resorufin production was quantified via a microplate fluorescence reader (SpectraMax iD5, Molecular Devices) at ex/em = 535/580 nm. The H2O2-decomposing activity was estimated via the following equation: (sample fluorescence-blank fluorescence)/(control […]-blank fluorescence) × 100. For the ROS-Glo assay, the H2O2 substrate solution and ROS-Glo detection solution were prepared according to the manufacturer’s instructions. 10 μM H2O2 and drugs were prepared as in the Amplex Red assay, with HRP, Hb, CAT, or GPx added as needed. The mixture was added to the wells at 100 μl/well and incubated for 60 min at 37 °C. H2O2 substrate solution was added, and the mixture was incubated at room temperature for 30 min. After the H2O2 substrate solution was added and incubated at room temperature for 30 min, the ROS-Glo detection solution was added, and the mixture was incubated for 15 min. Luminescence was measured via iD5 microplate readers. The H2O2-decomposing activity was estimated via the following equation: (sample luminescence-blank luminescence)/(control luminescence-blank luminescence) × 100. The U/ml was calculated on the basis of the amount of H2O2 reduced by Hb during the reaction, using μg/ml and U/mg.

[3] = target: T1, HRP (Armoracia rusticana, UniProt P00433); assay: H2O2 assay with HRP (HRP-EC50); assay type: biochemical, horseradish; conditions: Tables S2, S3; read-out: HRP-EC50
T1 sequence (P00433 31-353): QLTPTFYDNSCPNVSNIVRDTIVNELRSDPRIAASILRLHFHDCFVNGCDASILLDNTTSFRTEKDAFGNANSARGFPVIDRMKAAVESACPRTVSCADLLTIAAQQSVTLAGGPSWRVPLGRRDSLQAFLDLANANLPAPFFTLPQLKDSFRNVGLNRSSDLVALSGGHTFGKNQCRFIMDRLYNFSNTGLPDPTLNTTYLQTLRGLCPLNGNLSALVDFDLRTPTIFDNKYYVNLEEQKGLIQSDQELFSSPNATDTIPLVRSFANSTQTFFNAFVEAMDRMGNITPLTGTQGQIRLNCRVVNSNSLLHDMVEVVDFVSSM
Method: as §1

CNc1ccc(NCCc2ccc(C(F)(F)F)cc2)cc1.Cl [KDS12017, N^1-methyl-N^4-(4-(trifluoromethyl)phenethyl)benzene-1,4-diamine hydrochloride salt]
mean intensity of Iba1 in the hippocampus ([1]; Fig. S10e): 1556±53.65 | mean intensity of GFAP in the hippocampus ([1]; Fig. S10d): 1711±145.9 | H2O2-decomposing activity without HRP or Hb [2]: neither KDS12017 nor KDS12025 degrades H2O2 without Hb | EC50 [3]: 828 nM
